Where a SMILES comes first, the peptide text is derived from it. The star is where a group is joined. Cbz = O=C(OCc1ccccc1)*; ClAc = O=C(CCl)*; For = O=C*
Assays:
Assay type in all cases: biochemical
[1] = biological target: T1, guinea pig liver transglutaminase (Cavia cutleri, UniProt P08587); assay: Inhibition of tissue transglutaminase, hydroxamate assay (Example 29); conditions: 20 min preincubation at 37° C., first block r5-r22
T1 sequence (P08587 1-690): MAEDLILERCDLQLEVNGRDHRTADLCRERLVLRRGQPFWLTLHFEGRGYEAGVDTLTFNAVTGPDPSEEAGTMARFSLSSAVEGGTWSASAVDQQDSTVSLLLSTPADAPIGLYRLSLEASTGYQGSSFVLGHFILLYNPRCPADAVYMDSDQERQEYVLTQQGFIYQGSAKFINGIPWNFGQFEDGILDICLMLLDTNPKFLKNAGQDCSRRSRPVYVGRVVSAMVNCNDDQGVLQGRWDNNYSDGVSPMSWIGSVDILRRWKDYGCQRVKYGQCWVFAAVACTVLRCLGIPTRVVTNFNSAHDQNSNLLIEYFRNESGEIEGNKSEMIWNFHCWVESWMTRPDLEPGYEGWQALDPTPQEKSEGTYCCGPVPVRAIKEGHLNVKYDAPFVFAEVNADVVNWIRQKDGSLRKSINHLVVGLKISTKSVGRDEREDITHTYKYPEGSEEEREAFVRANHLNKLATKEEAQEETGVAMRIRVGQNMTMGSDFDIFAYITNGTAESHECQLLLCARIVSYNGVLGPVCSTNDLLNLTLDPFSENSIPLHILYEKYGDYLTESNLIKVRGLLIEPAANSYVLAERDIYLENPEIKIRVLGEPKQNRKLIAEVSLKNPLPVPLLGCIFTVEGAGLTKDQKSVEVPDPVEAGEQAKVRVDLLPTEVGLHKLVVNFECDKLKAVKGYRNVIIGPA
Experimental: The inhibitors are dissolved in dimethyl sulfoxide (DMSO) at a concentration of 100 mM. Solutions having a concentration of 10 mM, 1 mM and 0.1 mM are prepared by dilution with transglutaminase buffer (50 mM Tris-HCl, pH 7.0, 5 mM CaCl2, 2 mM DTT).
Afterwards, inhibition takes place by incubation (20 minutes at 37° C.) of 25 μL of a transglutaminase solution (bacterial transglutaminase or guinea pig liver transglutaminase, respectively) with 25 μL of the respective inhibitor solution. Immediately after the incubation has finished, 100 μL of substrate solution (0.1 mM hydroxylamine, 30 mM CBZ-Gln-Gly-OH, 2 mM DTT, 5 mM CaCl2 in 50 mM Tris-HCl, pH 7.0) are added and it is incubated for 10 minutes at 37° C. The reaction is stopped with 100 μL of a solution of 4% (w/v) HCl, 1.7% (w/v) FeCl3 and 4% (w/v) trichloroacetic acid [see Grossowicz et al., J. Biol. Chem. 187, 111-125, 1950]. After centrifugation (10 minutes, 10,000× g) the extinction of the supernatant solution at 492 nm in the microtiter plate reader and, thus, the remaining activity of the transglutaminase is determined.

[2] = biological target: T2, factor XIIIa (Homo sapiens, UniProt P00488); assay: Factor XIIIa fibrin coagulation/crosslinking inhibitor test (Example 31); conditions: inhibitor concentration range 0 to 10 μm; absorption of clots at 405 nm
T2 sequence (P00488 39-732 limits assumed): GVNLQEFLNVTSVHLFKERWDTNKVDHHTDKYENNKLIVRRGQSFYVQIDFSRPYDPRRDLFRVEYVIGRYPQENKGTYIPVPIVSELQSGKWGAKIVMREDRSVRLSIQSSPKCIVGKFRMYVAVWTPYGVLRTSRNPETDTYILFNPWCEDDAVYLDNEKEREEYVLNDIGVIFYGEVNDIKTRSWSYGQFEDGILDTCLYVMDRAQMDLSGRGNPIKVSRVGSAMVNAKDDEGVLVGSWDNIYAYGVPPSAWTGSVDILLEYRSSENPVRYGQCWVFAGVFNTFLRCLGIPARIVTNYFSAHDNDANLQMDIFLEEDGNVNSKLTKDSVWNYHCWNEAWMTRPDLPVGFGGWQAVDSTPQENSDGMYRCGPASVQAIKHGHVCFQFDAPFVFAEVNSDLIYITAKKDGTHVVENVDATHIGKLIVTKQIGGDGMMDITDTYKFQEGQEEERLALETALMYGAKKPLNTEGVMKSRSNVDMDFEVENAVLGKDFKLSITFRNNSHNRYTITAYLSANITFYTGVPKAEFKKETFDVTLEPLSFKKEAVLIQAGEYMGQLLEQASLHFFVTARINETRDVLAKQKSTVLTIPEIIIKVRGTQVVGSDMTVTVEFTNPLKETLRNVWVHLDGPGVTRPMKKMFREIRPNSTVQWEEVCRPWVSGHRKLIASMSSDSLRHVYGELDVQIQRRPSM
Experimental: The inhibitor tests were carried out in microtiter plates (0.2 ml). This entailed examination of the ability of the plasma transglutaminase to catalyze the coagulation of fibrin with and without inhibitor [modified method of Tymiak et al., J. Antibiot., 46, 204-206 (1993)].
40 μl of bovine fibrinogen (3 mg/ml, Sigma) in 25 mm Tris-HCl with 100 mm NaCl and 2.5 mm Ca^2+, pH 7.5, were incubated with 2 U/ml bovine thrombin (Sigma) at 25° C. for 10 min.
In a second mixture in parallel therewith, likewise 2 U/ml bovine thrombin (Sigma) were added to 20 μg/ml FXIII in 25 mm Tris-HCl with 100 mm NaCl and 2.5 mm Ca^2+, pH 7.5, and incubated at 25° C. for 10 min. The γ-aldehyde inhibitor concentration was then adjusted so that the measurements covered a concentration range from 0 to 10 μm. The reaction mixture was incubated at 25° C. for 15 min.
The two mixtures were combined and, after an incubation at 30° C. for 15 min, 150 μl of urea (8 M) were added. The absorption of the clots was measured at 405 nm.

[3] = biological target: T1, guinea pig liver transglutaminase; assay: Guinea pig liver transglutaminase, incorporation of hydroxylamine into CBZ-Gln-Gly (Example 31); conditions: 0-10 μM inhibitor, 15 min at 25° C.
Experimental: The inhibitor tests were carried out in analogy to the factor XIII test in microtiter plates. In this case, the incorporation of hydroxylamine into carbobenzoxy-L-glutaminylglycine (CBZ-Gln-Gly) was investigated [modified method of Grossowicz et al., J. Biol. Chem., 187, 111 -125 (1950)].
25 μl (0-10 μM) of inhibitor were added to 25 μl (5.0 U/ml) of guinea pig liver transglutaminase (Sigma) and incubated at 25° C. for 15 min. Then 100 μl of 0.2 M tris-acetate buffer, pH 6.0, with 30 mm CBZ-Gln-Gly, 0.1 M hydroxylamine and 10 mM glutathione were pipetted in. After 10 min at 37° C., the absorption at 492 nm was measured using a microtiter plate reader.

| Molecule | Inhibition of tissue transglutaminase at an inhibitor concentration of 0.05 mM ([1]; 0.05 mM inhibitor) | Inhibition of tissue transglutaminase at an inhibitor concentration of 0.5 mM ([1]; 0.5 mM inhibitor) | Inhibition of tissue transglutaminase at an inhibitor concentration of 5 mM ([1]; 5 mM inhibitor) | also measured |
| --- | --- | --- | --- | --- |
| CCOC(=O)CNC(=O)[C@H](COC=O)NC(=O)OCc1ccccc1 [Carbobenzoxy-β-(O-formyl)-L-serylglycine Ethyl Ester] (Cbz-Ser(For)-Gly-OEt) | 0% | 0% | 0% |  |
| CCOC(=O)CNC(=O)[C@H](COC(C)=O)NC(=O)OCc1ccccc1 [Carbobenzoxy-β-(O-acetyl)-L-serylglycine Ethyl Ester] (Cbz-Ser(Ac)-Gly-OEt) | 0% | 0% | 0% |  |
| γ-Aldehyde of tert-butyloxycarbonyl-L-glutaminyl-L-glutaminyl-L-isoleucyl-L-valine |  |  |  | Inhibition of factor XIIIa (fibrin crosslinking) [2]: effective factor XIIIa inhibitor |
| O=COC[C@H](NC(=O)OCc1ccccc1)C(=O)NCC(=O)O [Carbobenzoxy-L-serylglycine β-formate, Carbobenzoxy-L-serylglycine β-Formate] (Cbz-Ser(For)-Gly-OH) | 0% | 0% | 56% |  |
| Carbobenzoxy-β-(O-carbamoyl)-L-serylglycine Ethyl Ester | 0% | 0% | 0% |  |
| O=C(O)CNC(=O)[C@H](COC(=O)CCl)NC(=O)OCc1ccccc1 [Carbobenzoxy-L-serylglycine β-Chloroacetate] (Cbz-Ser(ClAc)-Gly-OH) | 1% | 43% | 91% |  |
| NC(=O)NC[C@H](NC(=O)OCc1ccccc1)C(=O)NCC(=O)O [Carbobenzoxy-β-ureido-L-alanylglycine] |  |  |  | inhibition at 50 µM ([1]; 0.05 mM inhibitor, read-out: Inhibition of tissue transglutaminase at an inhibitor concentration of 0.05 mM): 0%; inhibition at 500 µM ([1]; 0.5 mM inhibitor, read-out: Inhibition of tissue transglutaminase at an inhibitor concentration of 0.5 mM): 0%; inhibition at 5000 µM ([1]; 5 mM inhibitor, read-out: Inhibition of tissue transglutaminase at an inhibitor concentration of 5 mM): 35% |
| CC(C)(C)OC(=O)CNC(=O)[C@H](CNC(N)=O)NC(=O)OCc1ccccc1 [Carbobenzoxy-β-(N-carbamoyl)-L-aminoalanylglycine tert-butyl Ester] | 0% | 0% | 0% |  |
| CC(=O)OC[C@H](NC(=O)OCc1ccccc1)C(=O)NCC(=O)O [Carbobenzoxy-L-serylglycine β-acetate, Carbobenzoxy-L-serylqlycine β-acetate] (Cbz-Ser(Ac)-Gly-OH) | 0% | 0% | 0% |  |
| O=CCC[C@H](NC(=O)OCc1ccccc1)C(=O)NCC(=O)O [γ-Aldehyde of carbobenzoxy-L-glutamylglycine] |  |  |  | Inhibition of factor XIIIa (fibrin crosslinking) [2]: cannot be inhibited; Inhibitor concentration at which guinea pig liver transglutaminase is inhibited [3]: 1 µM |
| CCOC(=O)CNC(=O)[C@H](COC(=O)CCl)NC(=O)OCc1ccccc1 [Carbobenzoxy-β-(O-chloroacetyl)-L-serylglycine Ethyl Ester] (Cbz-Ser(ClAc)-Gly-OEt) | 2% | 7% | 76% |  |
